Like-named read-outs stand apart in the source and are kept apart here.
Experiments:
[1] = Lewis acidity measuring method (1): reaction rate constant of reaction between CoTPP and oxygen in the presence of a Lewis acid; assay type: physicochemical
Source text: Chem. Soc. […] Specifically, the Lewis acidity can be measured by the following “Lewis acidity measuring method (1)”, which is herein incorporated by reference.
As to acetonitrile (MeCN) that contains cobalt tetraphenylporphyrin, saturated O2, and an object whose Lewis acidity is to be measured (e.g., a cation of a metal or the like, represented by M^n+ in the following chemical reaction formula (1a)) in the following chemical reaction formula (1a), the change of the ultraviolet-visible absorption spectrum is measured at room temperature. On the basis of the obtained reaction rate constant (kcat), the ΔE value (eV), which is an indicator of the Lewis acidity, can be calculated. The higher the kcat, the stronger the Lewis acidity. Furthermore, the Lewis acidity of an organic compound can be estimated from the energy level of the lowest unoccupied molecular orbital (LUMO) calculated by the quantum chemical calculation. The higher the value at the positive side, the stronger the Lewis acidity.
In the following table, the numerical value expressed in the unit “kcat, M^−2s^−1” is a reaction rate constant of a reaction between CoTPP and oxygen in the presence of a Lewis acid. The numerical value expressed in the unit “LUMO, eV” is the energy level of LUMO.

[2] = test system: bacteria A (any one of Staphylococcus aureus, Escherichia coli MV1184, Streptococcus pyogenes, Streptcoccus mutans, Porphyromonas gingivalis, Treponema …); experiment: Bactericidal action on bacteria A-containing material (Experimental Example 1); assay type: cell-based; details: chlorine dioxide generated by bringing ozone gas into contact with a radical source; cultured after contact

| Compound | kcat, reaction rate constant of reaction between CoTPP and oxygen in the presence of a Lewis acid [1] | also measured |
| --- | --- | --- |
| benzalkonium chloride |  | kcat, reaction rate constant of reaction between CoTPP and oxygen in the presence of a Lewis acid ([1]; acetonitrile, saturated O2, room temperature): 0.18 M^−2 s^−1 |
| CC(C)(C)CC(C)(C)c1ccc(OCCOCC[N+](C)(C)Cc2ccccc2)cc1.[Cl-] [benzethonium chloride] | 0.24 M^−2 s^−1 |  |
| CCCC[N+](CCCC)(CCCC)CCCC.F[P-](F)(F)(F)(F)F [tetrabutylammonium hexafluorophosphate] | >0.1 M^−2 s^−1 |  |
| [O][Cl+][O-] [chlorine dioxide] |  | bactericidal effect on bacteria A [2]: exhibits a bactericidal effect |

Reference: US20240000084A1, “ANTI[…], ANTIBACTERIAL AGENT, ANTIVIRAL AGENT, PATHOGEN DISPOSAL DEVICE, ANTI[…] PRODUCTION METHOD, ANTIBACTERIAL TREATMENT METHOD, VIRUS INACTIVATION METHOD, AND PATHOGEN DISPOSAL METHOD” (ACENET INC., priority 2020, published 2024)
